One assay addresses human orexin-2 receptor (Homo sapiens (Human), UniProt O43614). The assay can be described thus: FLIPR Ca2+ Flux Assay, hOX2R. Type of assay: cell-based. The note with it: CHO cells expressing the human orexin-2 receptor; agonist 70 pM Ala-6,12 orexin-A. Here is the method:
The utility of the compounds in accordance with the present invention as orexin receptor OX1R and/or OX2R antagonists may be readily determined without undue experimentation by methodology well known in the art, including the “FLIPR Ca^2+ Flux Assay” (Okumura et al., Biochem. Biophys. Res. Comm. 280:976-981, 2001). In a typical experiment the OX1 and OX2 receptor antagonistic activity of the compounds of the present invention was determined in accordance with the following experimental method. For intracellular calcium measurements, Chinese hamster ovary (CHO) cells expressing the rat orexin-1 receptor or the human orexin-2 receptor, are grown in Iscove's modified DMEM containing 2 mM L-glutamine, […], 1% hypoxanthine-thymidine supplement, 100 U/ml penicillin, 100 μg/ml streptomycin and 10% heat-inactivated fetal calf serum (FCS). The cells are seeded at 20,000 cells/well into Becton-Dickinson black 384-well clear bottom sterile plates coated with poly-D-lysine. All reagents were from GIBCO-Invitrogen Corp. The seeded plates are incubated overnight at 37° C. and 5% CO2. Ala-6,12 human orexin-A as the agonist is prepared as a 1 mM stock solution in 1% bovine serum albumin (BSA) and diluted in assay buffer (HBSS containing 20 mM HEPES, 0.1% BSA and 2.5 mM probenecid, pH7.4) for use in the assay at a final concentration of 70 pM. Test compounds are prepared as 10 mM stock solution in DMSO, then diluted in 384-well plates, first in DMSO, then assay buffer. On the day of the assay, cells are washed 3 times with 100 μl assay buffer and then incubated for 60 min (37° C., 5% CO2) in 60 μl assay buffer containing 1 μM Fluo-4AM ester, 0.02% pluronic acid, and 1% BSA. The dye loading solution is then aspirated and cells are washed 3 times with 100 μl assay buffer. 30 μl of that same buffer is left in each well. Within the Fluorescent Imaging Plate Reader (FLIPR, Molecular Devices), test compounds are added to the plate in a volume of 25 μl, incubated for 5 min and finally 25 μl of agonist is added. Fluorescence is measured for each well at 1 second intervals for 5 minutes and the height of each fluorescence peak is compared to the height of the fluorescence peak induced by 70 pM Ala-6,12 orexin-A with buffer in place of antagonist. For each antagonist, IC50 value (the concentration of compound needed to inhibit 50% of the agonist response) is determined. Alternatively, compound potency can be assessed by a radioligand binding assay (described in Bergman et. al. Bioorg. Med. Chem. Lett. 2008, 18, 1425-1430) in which the inhibition constant (Ki) is determined in membranes prepared from CHO cells expressing either the OX1 or OX2 receptor. The intrinsic orexin receptor antagonist activity of a compound which may be used in the present invention may be determined by these assays.

Another assay addresses hOX1R (Homo sapiens, UniProt O43613). Description: FLIPR Ca2+ Flux Assay, hOX1R. Type of assay: cell-based. Conditions: CHO cells expressing orexin-1 receptor (head: hOX1R; method: rat); agonist 70 pM Ala-6,12 orexin-A. Here is the method: The utility of the compounds in accordance with the present invention as orexin receptor OX1R and/or OX2R antagonists may be readily determined without undue experimentation by methodology well known in the art, including the “FLIPR Ca^2+ Flux Assay” (Okumura et al., Biochem. Biophys. Res. Comm. 280:976-981, 2001). In a typical experiment the OX1 and OX2 receptor antagonistic activity of the compounds of the present invention was determined in accordance with the following experimental method. […] The cells are seeded at 20,000 cells/well into Becton-Dickinson black 384-well clear bottom sterile plates coated with poly-D-lysine. All reagents were from GIBCO-Invitrogen Corp. The seeded plates are incubated overnight at 37° C. and 5% CO2. Ala-6,12 human orexin-A as the agonist is prepared as a 1 mM stock solution in 1% bovine serum albumin (BSA) and diluted in assay buffer (HBSS containing 20 mM HEPES, 0.1% BSA and 2.5 mM probenecid, pH7.4) for use in the assay at a final concentration of 70 pM. Test compounds are prepared as 10 mM stock solution in DMSO, then diluted in 384-well plates, first in DMSO, then assay buffer. On the day of the assay, cells are washed 3 times with 100 μl assay buffer and then incubated for 60 min (37° C., 5% CO2) in 60 μl assay buffer containing 1 μM Fluo-4AM ester, 0.02% pluronic acid, and 1% BSA. The dye loading solution is then aspirated and cells are washed 3 times with 100 μl assay buffer. 30 μl of that same buffer is left in each well. Within the Fluorescent Imaging Plate Reader (FLIPR, Molecular Devices), test compounds are added to the plate in a volume of 25 μl, incubated for 5 min and finally 25 μl of agonist is added. Fluorescence is measured for each well at 1 second intervals for 5 minutes and the height of each fluorescence peak is compared to the height of the fluorescence peak induced by 70 pM Ala-6,12 orexin-A with buffer in place of antagonist. For each antagonist, IC50 value (the concentration of compound needed to inhibit 50% of the agonist response) is determined. Alternatively, compound potency can be assessed by a radioligand binding assay (described in Bergman et. al. Bioorg. Med. Chem. Lett. 2008, 18, 1425-1430) in which the inhibition constant (Ki) is determined in membranes prepared from CHO cells expressing either the OX1 or OX2 receptor. The intrinsic orexin receptor antagonist activity of a compound which may be used in the present invention may be determined by these assays.
On the technique in general: Calcium assays in cells follow changes in intracellular calcium, usually with a dye or a luminescent sensor.

Chain of human orexin-2 receptor (O43614 whole entry): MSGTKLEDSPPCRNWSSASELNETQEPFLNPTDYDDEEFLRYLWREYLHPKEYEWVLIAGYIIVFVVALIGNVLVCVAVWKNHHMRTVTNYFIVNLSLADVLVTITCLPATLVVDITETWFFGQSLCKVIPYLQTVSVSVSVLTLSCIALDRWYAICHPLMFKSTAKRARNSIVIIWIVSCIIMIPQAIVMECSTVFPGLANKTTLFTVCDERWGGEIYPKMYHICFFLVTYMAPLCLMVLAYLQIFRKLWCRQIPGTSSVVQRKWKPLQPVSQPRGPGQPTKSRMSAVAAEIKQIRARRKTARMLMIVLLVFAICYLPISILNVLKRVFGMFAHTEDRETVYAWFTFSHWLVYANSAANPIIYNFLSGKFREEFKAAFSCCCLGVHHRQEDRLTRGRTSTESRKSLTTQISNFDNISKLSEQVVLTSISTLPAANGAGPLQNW

The term IC50 denotes the midpoint of a concentration-inhibition curve. A low value points to greater potency in that assay. Take `C[C@@H]1CC[C@@H](c2cnn(C3CCCC3)c2)CN1C(=O)c1ccccc1-n1nccn1` [Example 4, (2R,5S)-5-(1-cyclopentyl-1H-pyrazol-4-yl)-2-methyl-1-{[2-(2H-1,2,3-triazol-2-yl)phenyl]carbonyl}piperidine]: the IC50 was found to be 39 nM on human orexin-2 receptor and 1.43 µM at hOX1R.
The like results for `CC(C)n1cc([C@@H]2CC[C@@H](C)N(C(=O)c3ccccc3-n3nccn3)C2)cn1` [Example 2, (2R,5S)-2-methyl-5-[1-(1-methylethyl)-1H-pyrazol-4-yl]-1-1{[2-(2H-1,2,3-triazol-2-yl)phenyl]carbonyl}piperidine] were, in that order, 34 nM and 3.41 µM.
The corresponding values for `C[C@@H]1CC[C@@H](c2cnn(CC3CC3)c2)CN1C(=O)c1ccccc1-n1nccn1` [Example 3, (2R,5S)-5-[1-(cyclopropylmethyl)-1H-pyrazol-4-yl]-2-methyl-1-{[2-(2H-1,2,3-triazol-2-yl)phenyl]carbonyl}piperidine] are 124 nM and 7.71 µM.
The like results for `C[C@@H]1CC[C@@H](c2cnn(C3CCC3)c2)CN1C(=O)c1ccccc1-n1nccn1` [Example 8, (2R,5S)-5-(1-cyclobutyl-1H-pyrazol-4-yl)-2-methyl-1-{[2-(2H-1,2,3-triazol-2-yl)phenyl]carbonyl}piperidine] were, in that order, 49 nM and 3.44 µM.
In the case of `C[C@@H]1CC[C@@H](c2cnn(CC(F)F)c2)CN1C(=O)c1ccccc1-n1nccn1` [Example 6, (2R,5S)-5-[1-(2,2-difluoroethyl)-1H-pyrazol-4-yl]-2-methyl-1-{[2-(2H-1,2,3-triazol-2-yl)phenyl]carbonyl}piperidine], the results for the 50% inhibitory concentration (IC50) at human orexin-2 receptor and at hOX1R were 183 nM and greater than 10 µM, respectively.
The like results for `CC(C)n1cc([C@@H]2CC[C@@H](C)N(C(=O)c3cscc3-n3nccn3)C2)cn1` [Example 14, (2R,5S)-2-methyl-5-[1-(1-methylethyl)-1H-pyrazol-4-yl]-1-{[4-(2H-1,2,3-triazol-2-yl)thiophen-3-yl]carbonyl}piperidine] were, in that order, 430 nM and greater than 10 µM.
The corresponding values for `CC(C)n1cc([C@@H]2CC[C@@H](C)N(C(=O)c3ccsc3-c3ncccn3)C2)cn1` [Example 13, 2[3-({(2R,5S)-2-methy1-5-[1-(1-methylethyl)-1H-pyrazol-4-yl]piperidin-1-yl}carbonyl)thiophen-2-yl]pyrimidine] are 155 nM and greater than 10 µM.
The corresponding values for `CC(C)n1cc([C@@H]2CC[C@@H](C)N(C(=O)c3ccccc3-n3ncnn3)C2)cn1` [Example 16, (2R,5S)-2-methyl-5-[1-(1-methylethyl)-1H-pyrazol-4-yl]-1-{[2-(2H-tetrazol-2-yl)phenyl]carbonyl}piperidine] are 259 nM and greater than 10 µM.
On to `C[C@@H]1CC[C@@H](c2cnn(CC(C)(C)O)c2)CN1C(=O)c1ccccc1-n1nccn1` [Example 10, 2-Methyl-1-{4-[(3S,6R)-6-methyl-1-{[2-(2H-1,2,3-triazol-2-yl)phenyl]carbonyl}piperidin-3-yl]-1H-pyrazol-1-yl}propan-2-ol], for which the IC50 at human orexin-2 receptor is 197 nM; on hOX1R, greater than 10 µM.
The corresponding values for `C[C@@H]1CC[C@@H](c2cnn(C3CC3)c2)CN1C(=O)c1ccccc1-n1nccn1` [Example 11, (2R,5S)-5-(1-Cyclopropyl-1H-pyrazol-4-yl)-2-methyl-1-{[2-(2H-1,2,3-triazol-2-yl)phenyl]carbonyl}piperidine] are 56 nM and greater than 10 µM.
For the molecule `CC(C)n1cc([C@@H]2CC[C@@H](C)N(C(=O)c3ccsc3-n3nccn3)C2)cn1` [Example 12, (2R,5S)-2-Methyl-5-[1-(1-methylethyl)-1H-pyrazol-4-yl]-1-{[2-(2H-1,2,3-triazol-2-yl)thiophen-3-yl]carbonyl}piperidine], the figures for the IC50 at human orexin-2 receptor and on hOX1R were 301 nM and greater than 10 µM, respectively.
The corresponding values for `C[C@@H]1CC[C@@H](c2cnn(C3CCOC3)c2)CN1C(=O)c1ccccc1-n1nccn1` (stereo partly drawn) [Example 9, (2R,5S)-2-methyl-5-[1-(tetrahydrofuran-3-yl)-1H-pyrazol-4-yl]-1-{[2-(2H-1,2,3-triazol-2-yl)phenyl]carbonyl}piperidine] are 600 nM and greater than 10 µM.
The corresponding values for `C[C@@H]1CC[C@@H](c2cnn(CC(F)(F)F)c2)CN1C(=O)c1ccccc1-n1nccn1` [Example 5, (2R,5S)-2-methyl-1-{[2-(2H-1,2,3-triazol-2-yl)phenyl]carbonyl}-5-[1-(2,2,2-trifluoroethyl)-1H-pyrazol-4-yl]piperidine] are 75 nM and greater than 10 µM.
The like results for `CC(C)n1cc([C@@H]2CC[C@@H](C)N(C(=O)c3ccc(F)cc3-n3nccn3)C2)cn1` [Example 15, (2R,5S)-1-{[4-fluoro-2-(2H-1,2,3-triazol-2-yl)phenyl]carbonyl}-2-methyl-5-[1-(1-methylethyl)-1H-pyrazol-4-yl]piperidine] were, in that order, 113 nM and greater than 10 µM.
Regarding `CCn1cc([C@@H]2CC[C@@H](C)N(C(=O)c3ccccc3-n3nccn3)C2)cn1` [Example 1, (2R,5S)-5-(1-Ethyl-1H-pyrazol-4-yl)-2-methyl-1-{[2-(2H-1,2,3-triazol-2-yl)phenyl]carbonyl}piperidine], the half-maximal inhibitory concentration (IC50) was 139 nM on human orexin-2 receptor and greater than 10 µM on hOX1R.
The corresponding values for `COC(=O)C(C)(C)n1cc([C@@H]2CC[C@@H](C)N(C(=O)c3ccccc3-n3nccn3)C2)cn1` [Example 7, methyl 2-methyl-2-{4-[(3S,6R)-6-methyl-1-{[2-(2H-1,2,3-triazol-2-yl)phenyl]carbonyl}piperidin-3-yl]-1H-pyrazol-1-yl}propanoate] are 46 nM and 3.05 µM.

For the origin of these results see patent US10227336B2, “Pyrazole orexin receptor antagonists” (MERCK SHARP & DOHME CORP., priority 2014, dated 2019).
